Active and inactive are the calls of the source. The rule behind the calls is not given here.

Assay [1] relates to Cell membrane. The experiment in a line: Induction of membrane permeabilization in Escherichia coli 0894 assessed as increase in fluorescence intensity at 1X to 10XMIC measured for 90 mins by propidium iodide staining based fluorescence analysis. Type of assay: subcellular.
In assay [2] the test system is Pseudomonas aeruginosa. The experiment in a line: Antibacterial activity against Pseudomonas aeruginosa 52097 assessed as inhibition of bacterial growth incubated for 24 hrs by tube microdilution assay. Type of assay: functional.
In assay [3] the test system is Escherichia coli. Nature of the assay: Antibacterial activity against Escherichia coli 1007 assessed as inhibition of bacterial growth incubated for 24 hrs by tube microdilution assay. The class given is functional. (Broth dilution looks for growth in wells or tubes with falling amounts of substance.)
In assay [4] the test system is Escherichia coli. The experiment in a line: Antibacterial activity against Escherichia coli 0894 assessed as inhibition of bacterial growth incubated for 24 hrs by tube microdilution assay. Type of assay: functional.
In assay [5] the test system is Staphylococcus aureus. Nature of the assay: Induction of bacterial cell rupture in Staphylococcus aureus ATCC 6538 assessed as membrane rupture, roughening and blebbing of membrane at 5XMIC measured after 30 mins by transmission electron microscopy. Type of assay: functional, organism-based.
The test system of assay [6] is Escherichia coli. Nature of the assay: Antibacterial activity against Escherichia coli 5017 assessed as inhibition of bacterial growth incubated for 24 hrs by tube microdilution assay. The class given is functional.
The test system of assay [7] is Pseudomonas aeruginosa. Nature of the assay: Antibacterial activity against Pseudomonas aeruginosa 90068 assessed as inhibition of bacterial growth incubated for 24 hrs by tube microdilution assay. Type of assay: functional.
Assay [8] deals with Staphylococcus aureus. Nature of the assay: Antibacterial activity against Staphylococcus aureus ATCC 6538 infected in BALB/c mouse assessed as inhibition of bacterial colonization on wounded skin at 2 mg/ml applied on skin and measured after 2 hrs relative to control. Type of assay: functional.
The test system of assay [9] is Pseudomonas aeruginosa. Nature of the assay: Bactericidal activity against Pseudomonas aeruginosa ATCC 27853 assessed as bacterial cell killing measured after 60 passages. Type of assay: functional, organism-based.
The test system of assay [10] is Acinetobacter baumannii. The experiment in a line: Antibacterial activity against Acinetobacter baumannii 10769 assessed as inhibition of bacterial growth incubated for 24 hrs by tube microdilution assay. The class given is functional.
Assay [11] concerns Cell membrane. Nature of the assay: Induction of membrane permeabilization in Pseudomonas aeruginosa 17068 assessed as increase in fluorescence intensity at 1X to 10XMIC measured for 90 mins by propidium iodide staining based fluorescence analysis. Type of assay: subcellular.
Assay [12] relates to Pseudomonas aeruginosa. The experiment in a line: Antipersister-activity against Pseudomonas aeruginosa ATCC 27853 assessed as elimination of persister cells preincubated adherent persistent cells with colistin for 24 hrs followed by incubation with drug for 12 hrs. Type of assay: functional, organism-based.
In assay [13] the test system is Acinetobacter baumannii. Nature of the assay: Antibacterial activity against Acinetobacter baumannii 0357 assessed as inhibition of bacterial growth incubated for 24 hrs by tube microdilution assay. The class given is functional.
Assay [14] deals with Pseudomonas aeruginosa. The experiment in a line: Induction of bacterial cell rupture in Pseudomonas aeruginosa ATCC 27853 assessed as bacterial membrane damage with visible surface irregularities and protrusions at 5XMIC measured after 30 mins scanning electron microscopy. Type of assay: functional, organism-based.
For assay [15], the system named is Acinetobacter baumannii. Nature of the assay: Antibacterial activity against Acinetobacter baumannii ATCC 19606 infected in BALB/c mouse assessed as inhibition of bacterial colonization on wounded skin at 0.1 to 2 mg/ml applied on skin and measured after 2 hrs. The class given is functional, organism-based. The note with it: dose 0.1-2 mg/ml.
The test system of assay [16] is Acinetobacter baumannii. Nature of the assay: Antibiofilm activity against preformed Acinetobacter baumannii ATCC 19606 biofilms assessed as biofilm eradication at 1X to 10XMIC incubated for 24 hrs by crystal violet staining based analysis. The class given is functional, organism-based.
Assay [17] relates to Staphylococcus aureus. Nature of the assay: Antibacterial activity against Staphylococcus aureus 15775 assessed as inhibition of bacterial growth incubated for 24 hrs by tube microdilution assay. The class given is functional.
Assay [18] concerns Staphylococcus aureus. Nature of the assay: Antibacterial activity against Staphylococcus aureus 15772 assessed as inhibition of bacterial growth incubated for 24 hrs by tube microdilution assay. Type of assay: functional.
In assay [19] the test system is Staphylococcus aureus. The experiment in a line: Antibiofilm activity against preformed Staphylococcus aureus ATCC 6538 biofilms assessed as biofilm eradication at 1X to 10XMIC incubated for 24 hrs by crystal violet staining based analysis. The class given is functional, organism-based.
In assay [20] the test system is Staphylococcus aureus. Nature of the assay: Antibacterial activity against methicillin-resistant Staphylococcus aureus 52 assessed as inhibition of bacterial growth incubated for 24 hrs by tube microdilution assay. Type of assay: functional.

The MIC is the least concentration at which growth counts as inhibited. A word on the inhibition in vivo: it is the share of the control response that was lost under treatment. Consider H-RRGIKKFIKKVKKVKKAI-OH, for which the Activity result is “Dose-dependent-effect” in the assay on Cell membrane [1]; “Active; Roughening And Blebbing Of Membrane Is Less Pronounced Than In Pseudomonas Aeruginosa” in the assay with Staphylococcus aureus [5]; “Dose-dependent-effect” in the assay with Cell membrane [11]; “Dose-dependent-effect” in the assay with Pseudomonas aeruginosa [12]; “Dose-dependent-effect; Less Efficacy Compared To Colistin, Reflected By Reduced Efficacy After Plasma Treatment” with Acinetobacter baumannii [15]. Moreover, the MIC in the assay on Pseudomonas aeruginosa [2] was found to be 1.17 µg/mL; with Escherichia coli [3], 9.37 µg/mL; with Escherichia coli [4] it was 9.37 µg/mL; in the assay with Escherichia coli [6], 9.37 µg/mL; in the assay on Pseudomonas aeruginosa [7], 1.17 µg/mL; in the assay with Acinetobacter baumannii [10] it was 2.34 µg/mL. Moreover, the MIC in the assay with Acinetobacter baumannii [13], with Staphylococcus aureus [17], in the assay with Staphylococcus aureus [18] and in the assay on Staphylococcus aureus [20] was 2.34 µg/mL each time. Also, the inhibition in vivo at 2000 µg/mL in the assay on Staphylococcus aureus [8] stood at 82.4%. Also, the outcome with Pseudomonas aeruginosa [9], in the assay with Pseudomonas aeruginosa [14], in the assay on Acinetobacter baumannii [16] and in the assay with Staphylococcus aureus [19] was Active.
